Our source for the RP-LC retention time values is the METLIN SMRT retention time set (Domingo-Almenara et al. 2019).

A short description of this series: gradient 5% acetonitrile 3 min, to 50% in 2 min, to 85% in 15 min, held 3 min, 100 µL/min. The conditions noted are these: column: Zorbax Extend-C18 2.1 x 50 mm; eluents: water / acetonitrile, 0.1% formic acid. In outline: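 Retention times come from adduct peaks that were picked computationally and then checked by hand. The standards, pure and pooled in mixtures of ~100 molecules, were run on a Zorbax Extend-C18 column (2.1 × 50 mm, 1.8 μm) at 100 μL/min with water and acetonitrile, each with 0.1% formic acid. Detection was by quadrupole time-of-flight mass spectrometry in positive and negative ionization mode, with a dead volume of 40 μL and a dwell volume of 900 μL.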
With `CSc1cccc(NC(=O)N2CCc3c(c(-c4nc(C5CC5)no4)nn3C)C2)c1`, the RP-LC retention time was 883 s. Compound `O=C(c1cccc(F)c1)N1CCN(C(=O)c2nsc3ccccc23)CC1` gave an RP-LC retention time of 760 s. For `O=C(NC1CCCCCCC1)C1CCCN(c2cn[nH]c(=O)c2)C1` (centres undefined) the value was 719 s.

`OCCN1CCN(c2ncnc3c2cnn3-c2ccc(Cl)cc2)CC1` gave an RP-LC retention time of 650 s.

`CCC(C(=O)Nc1cc(-c2cn3nc(OC)ccc3n2)ccc1F)c1ccccc1` (centres undefined): the RP-LC retention time stood at 916 s. For `CS(=O)(=O)N1CCC(CNC(=O)CSCc2ccccc2)CC1`, the RP-LC retention time amounted to 691 s. The compound `Cc1ccc(C(=O)NCCn2c(=O)n(Cc3ccccc3)c3cccnc32)s1` had an RP-LC retention time of 805 s. For `CCN1CCN(c2ncc3c(n2)CCN(Cc2ccc(OC)c(OC)c2OC)C3)CC1` the value was 547 s; for `COC(=O)C1=C(CN2CCOCC2)NC(=O)NC1c1ccccc1C` (centres undefined), 590 s; for `Cc1ccc(C(=O)N2CCN(c3nnc4ccc(Cl)cn34)CC2)cc1F`, 760 s. Compound `CCC1CCCCN1C(=O)c1cnc2nc(C)ccc2c1Nc1ccc(C)c(F)c1` (centres undefined) returned an RP-LC retention time of 716 s. In the case of `Cc1cc(NC(=O)CSc2nnc3sc4ccccc4n23)no1`, the RP-LC retention time stood at 668 s.

As for `CCOc1ccc(C(=O)NCC(=O)Nc2nc3ccccc3[nH]2)cc1`, the RP-LC retention time worked out at 648 s. In the case of `COCC(=O)NC1CCC12CCN(C(=O)CC1CCCC1)CC2` (centres undefined), the RP-LC retention time was 722 s. As to `COc1ccc(N2CCN(c3ncccc3-c3nc(-c4ccccc4)no3)CC2)cc1`, the RP-LC retention time is 1290 s. On to `Cc1ccc(CNC(=O)C2(C)CCN(C(=O)Nc3ccc4c(c3)OCCO4)CC2)cc1`, for which the RP-LC retention time was found to be 751 s. Regarding `Cc1ccc(Cn2nc3n(Cc4ccc(F)cc4)c(=O)c4nn(C)cc4n3c2=O)cc1`, the RP-LC retention time was determined as 952 s.

The compound `Cc1nn(CC(=O)NCc2ccco2)c(=O)c2c(-n3cccc3)n(-c3ccccc3)nc12` showed an RP-LC retention time of 881 s. `CCn1cc(CCNC(=O)NC)c2cccnc21` had an RP-LC retention time of 561 s.

`CN(C)[C@@H]1CN(C(=O)C2CCCCC2)CC[C@@H]1CO` yielded an RP-LC retention time of 585 s.

`CCc1ccc(S(=O)(=O)N2c3ccccc3NC3=C(C(=O)CCC3)C2c2ccco2)cc1` (centres undefined) came in with an RP-LC retention time of 923 s.

The compound `COc1ccc(N2CCN(C(=O)C3CCCN(c4ccc(-c5ccccc5)nn4)C3)CC2)cc1` (centres undefined) returned an RP-LC retention time of 711 s. For the compound `O=C([C@@H]1C[C@H](F)CN1C(=O)Nc1cc(F)cc(F)c1)N1CCCCC1`, the RP-LC retention time stood at 766 s. For `CCC(=O)Nc1ccc(C2(C(=O)N3CCCCCC3)CCC2)cc1` the value was 801 s; for `COc1ccccc1N1CCN(Cc2nc(-c3ccccc3)no2)CC1`, 798 s. In turn, `Cc1c(-c2nnc(C(=O)NCCN3CCCCCC3)o2)oc2ccccc12` showed an RP-LC retention time of 667 s. Compound `COc1cc(C(=O)N2CCN(c3cc(-c4ccc(Cl)cc4)[nH]n3)CC2)cc(OC)c1OC` returned an RP-LC retention time of 827 s. `Cc1ccc(C)c(Cn2nc3ccc(S(=O)(=O)N4CCC(C)CC4)cn3c2=O)c1` gave an RP-LC retention time of 1130 s. Compound `Cc1ccc(-n2cc3c(N4CCCC(C(=O)NC(C)c5ccc(F)cc5)C4)ncnc3n2)cc1` (centres undefined) showed an RP-LC retention time of 741 s. Take `O=C(Nc1ccc2nc3n(c(=O)c2c1)CCCCC3)C(=O)N1CCCCCC1`: the RP-LC retention time is 729 s.

`COc1cccc(-c2noc(C3CCCN3C(=O)Nc3cc(C)ccc3C)n2)c1` (centres undefined) had an RP-LC retention time of 1020 s. For `O=C(CCc1nc2ccccc2[nH]1)N1CCC(c2noc(-c3ccncc3)n2)C1` (centres undefined) the value was 557 s.

For the compound `O=S(=O)(c1ccc(F)c(Cl)c1)N1CCC(OCc2noc(C3CCCO3)n2)CC1` (centres undefined), the RP-LC retention time was 973 s. The compound `Cc1nnc2n1CCN(C(=O)c1nn(C)c3ccccc13)C2` had an RP-LC retention time of 605 s. For `O=C(c1cnc2ccccc2n1)N1CC(c2nc(-c3cccc(C(F)(F)F)c3)no2)C1` the value was 1030 s. For `O=C(Nc1cnc(N2CCC(N3CCCCC3)CC2)c(C(=O)O)c1)c1ccc(Br)cc1` the value was 637 s; for `Brc1ccc(OCc2nnc3sc(-c4ccncc4)nn23)cc1`, 811 s; for `NC(=O)C1(N2CCCCC2)CCN(c2ncc(S(=O)(=O)c3ccccc3)c(N)n2)CC1`, 588 s. Consider `O=C(CCOc1ccc(F)cc1)N1CCN(Cc2ccccc2)CC1`, for which the RP-LC retention time was 575 s. `COc1ccc(-c2cn3c(CC(=O)Nc4ccc(C(F)(F)F)cc4)csc3n2)cc1OC` had an RP-LC retention time of 846 s. Compound `Cc1nc2cc(C(=O)N3CCOCC3)ccc2n(C)c1=O` yielded an RP-LC retention time of 596 s.

Consider `N#CCn1cccc1-c1nc(-c2cccnc2)no1`, for which the RP-LC retention time amounted to 776 s. For `O=C(Cc1c[nH]c2ccccc12)NCCc1c[nH]c2ccc(F)cc12` the value was 804 s.

In the case of `COc1ccc(Cl)cc1NC(=O)c1coc(NC(=O)C2CC2)n1`, the RP-LC retention time was determined as 770 s. As for `O=C(O)C1CCN(C(=O)Cc2n[nH]c(=O)c3ccccc23)CC1`, the RP-LC retention time turned out to be 581 s. The compound `CCCC(NC(=O)CCc1c(-c2ccc(Cl)cc2)nc2ccccn12)c1cccs1` (centres undefined) showed an RP-LC retention time of 767 s. As for `COc1cccc2cc(C(=O)NCCn3nc(-c4cccs4)ccc3=O)oc12`, the RP-LC retention time came out at 676 s.

As for `Cc1ccccc1-c1cc(C(=O)N2CCC(NC(=O)C3CCC(C)CC3)CC2)[nH]n1` (centres undefined), the RP-LC retention time amounted to 811 s.

In turn, `CCNc1cc(N2CCCC(CCC(=O)NC(C)c3c(C)nn(C)c3C)C2)ncn1` (centres undefined) returned an RP-LC retention time of 582 s. Turning to `CCCN1C(=O)COc2ccc(-c3noc(CNC(=O)Cc4ccccc4)n3)cc21`, the RP-LC retention time was 849 s. The compound `CCN(CC)S(=O)(=O)c1cccc(-c2nnc(-c3ccc(OC)c(OC)c3)o2)c1` displayed an RP-LC retention time of 950 s. In turn, `Cc1ccc(-c2cn3ccn(-c4ccc(F)cc4)c(=O)c3n2)cc1` displayed an RP-LC retention time of 827 s. Next, `Cc1nc(N2CCCC2)cc(N2CCN(C(=O)c3ccccc3Br)CC2)n1`: 651 s; `COc1ccc(C(=O)N2C[C@@H]3C[C@H](NC(=O)c4cccs4)[C@H]2C3)cc1F`: 733 s. For `Cc1ccc(CN2C(=O)N(c3cccc(F)c3)c3ncccc3S2(=O)=O)cc1` the value was 1100 s; for `Cc1cccc(-c2noc(Cn3c(=O)n(C(C)C)c(=O)c4ccccc43)n2)c1`, 1170 s. For `CC(C)CNC(=O)N1CC(n2cc(C(=O)N(C)C)nn2)C1` the value was 609 s; for `CCN(CC)C(=O)Cn1c(=O)c2cnc(-c3ccc(C)cc3)nc2n(C)c1=O`, 985 s; for `O=C(CSc1nnc(-c2ccccc2F)o1)NC1CCCCC1`, 782 s. `CN(C)c1ccc(CNC(=O)Cc2c[nH]c3ncccc23)cc1` yielded an RP-LC retention time of 640 s. For the compound `CN1CC(c2nc(C3CC3)no2)C2(CCN(C(=O)c3ccc4c(c3)OCO4)CC2)C1` (centres undefined), the RP-LC retention time worked out at 609 s. `CCc1nc2cc(N3CCCC(C(=O)NCc4ccco4)C3)cnc2nc1CC` (centres undefined): the RP-LC retention time is 673 s. Next, `COc1cc2c(cc1OC)C(C(=O)N(C)c1ccc(Cl)cc1)C(c1cccnc1)N(C)C2=O` (centres undefined): 674 s. Next, `Cc1noc(C)c1S(=O)(=O)Nc1cccc(-c2nc(-c3cccc(Br)c3)co2)c1`: 1230 s; `Cc1ccc(CNC(=O)c2nnc(-c3ccc(S(=O)(=O)N4CCCC4)cc3)o2)cc1`: 940 s; `O=C(NCC(=O)N1CC2CN(S(=O)(=O)c3cccc(F)c3)CC(C1)O2)c1ccccc1`: 730 s. Compound `COc1ccccc1CNC(=O)CN1CCN(Cc2ccc(F)cc2)C(=O)C1=O` registered an RP-LC retention time of 732 s. As to `COCCc1noc(-c2ccc(=O)n(CC(=O)Nc3ccccc3F)c2)n1`, the RP-LC retention time worked out at 695 s. Turning to `CC(=O)Nc1ccc(NC(=O)c2nc3ccccn3c2-c2ccc(Cl)cc2)cc1`, the RP-LC retention time was determined as 855 s. Compound `COc1ccc(-c2cc(=O)n(CC(=O)Nc3nc4c(s3)CCCC4)cn2)cc1` returned an RP-LC retention time of 762 s.

The compound `O=c1n(Cc2cccc(C(F)(F)F)c2)nc2c(S(=O)(=O)N3CCCCCC3)cccn12` gave an RP-LC retention time of 1020 s. `Cc1sc(-c2cc(C(F)(F)F)on2)cc1S(=O)(=O)N1CCN(c2ccc(Cl)cc2)CC1` came in with an RP-LC retention time of 1400 s. In turn, `Cc1ccc(C)c(NC(=O)Cc2csc3nc(-c4ccccc4)cn23)c1` came in with an RP-LC retention time of 845 s. As for `CCOC(=O)c1c(C)oc2nc(C)nc(N3CCN(c4ccccc4OC)CC3)c12`, the RP-LC retention time is 1020 s.

`O=C(CC1CCCN(c2cn[nH]c(=O)c2)C1)Nc1ccc2c(c1)OCCO2` (centres undefined) displayed an RP-LC retention time of 639 s. For the compound `Cc1cc(NC(=O)CN2C(=O)NC(c3ccccc3Cl)C3=C2COC3=O)ccc1Br` (centres undefined), the RP-LC retention time was 887 s. `COc1ccc(NS(=O)(=O)c2cc3n(c2)CCN(C)C3=O)cc1Cl` came in with an RP-LC retention time of 696 s. Compound `COC(=O)C1CCC(=O)N1C(c1ccc(OC)cc1)c1cc(OC)c(OC)c(OC)c1` (centres undefined) yielded an RP-LC retention time of 753 s. For `COCC(=O)N1CCC2(CC1)NCc1ccccc1-n1ccnc12`, the RP-LC retention time came out at 548 s.
